Data taken from patent US20150105409A1, “HDAC INHIBITORS, ALONE OR IN COMBINATION WITH BTK INHIBITORS, FOR TREATING NONHODGKIN'S LYMPHOMA” (Acetylon Pharmaceticals, Inc., priority 2013, published 2015).

How the values were obtained:
Format in all cases: cell-based, human
Z138 MCL cells = test: CellTiter-Blue cell viability, combination (CI analysis); conditions: Z138, 72 hours, single agent
Description: Cell viability was next assessed using the CellTiter-Blue reagent (Promega). The results of these experiments are shown in FIG. 8 and in the Table below.

Z138 cells [1] = test: Viability of MCL cells after inhibition of HDAC6
Mino MCL cells = test: CellTiter-Blue cell viability, combination (CI analysis); conditions: 72 hours, single agent
Description: Cell viability was next assessed using the CellTiter-Blue reagent (Promega).

Z138 cells [2] = test: Apoptosis by 7-AAD/Annexin V flow cytometry; conditions: Z138, 48 hours; Compound A 3 or 12.5 μM, ibrutinib 10 or 30 μM, alone or combined (FIGS. 2-3)
Description: (§1) Annexin/PI flow cytometric analysis was used to determine percentage of apoptotic cells. […]

Mino cells [3] = test: Apoptosis by 7-AAD/Annexin V flow cytometry; conditions: 48 hours, Compound A 3 or 12.5 μM, ibrutinib 10 or 30 μM, alone or combined (FIGS. 2-3)
Description: as §1

Mino cells [4] = test: Cell cycle analysis by propidium iodide flow cytometry; conditions: 48 hours, Compound A 13 μM, ibrutinib 10 μM, alone or combined (FIG. 5)
Procedure: Cells were fixed and stained with propidium iodide (PI) and were analyzed by flow cytometry.

Mino cells [5] = test: Viability of MCL cells after inhibition of HDAC6
[6] = at Fa of combination dose 1.3E−6/3.1E−6
[7] = at Fa of combination dose 2.5E−6/6.2E−6
[8] = at Fa of combination dose 5.0E−6/12.5E−6
[9] = at Fa of combination dose 10.0E−6/25.0E−6
[10] = at Fa of combination dose 20.0E−6/50.0E−6
[11] = at Fa of combination dose 78.1E−9/195.3E−9
[12] = at Fa of combination dose 156.3E−9/390.6E−9
[13] = at Fa of combination dose 312.5E−9/781.2E−9
[14] = at Fa of combination dose 625.0E−9/1.6E−6

For `O=C(CCCCCCNC(=O)c1cnc(N(c2ccccc2)c2ccccc2)nc1)NO` [Compound A, 2-(diphenylamino)-N-(7-(hydroxyamino)-7-oxoheptyl)pyrimidine-5-carboxamide], the “Dm (Cmpd A)” value (Z138 MCL cells; [6]) was 1.7E−6, the “Dm (Cmpd A)” value (Z138 MCL cells; [7]) was 3.4E−6 and the “Dm (Cmpd A)” value (Z138 MCL cells; [8]) was 6.8E−6. The “Dm (Cmpd A)” value (Z138 MCL cells; [9]) was 13.7E−6, the “Dm (Cmpd A)” value (Z138 MCL cells; [10]) was 27.7E−6 and the “Dm (Cmpd A)” value (Z138 MCL cells; [11]) was 100.1E−9. For the same molecule, the “Dm (Cmpd A)” value (Z138 MCL cells; [12]) was 202.2E−9, the “Dm (Cmpd A)” value (Z138 MCL cells; [13]) was 408.3E−9 and the “Dm (Cmpd A)” value (Z138 MCL cells; [14]) was 824.5E−9. For the same molecule, the cell viability (Z138 cells [1]) was “decreased viability”, the “Dm (Cmpd A)” value (Mino MCL cells; [6]) was 1.6E−6 and the “Dm (Cmpd A)” value (Mino MCL cells; [7]) was 13.1E−6. The “Dm (Cmpd A)” value (Mino MCL cells; [8]) was 108.1E−6, the “Dm (Cmpd A)” value (Mino MCL cells; [9]) was 894.0E−6 and the “Dm (Cmpd A)” value (Mino MCL cells; [10]) was 7.4E−3. The “Dm (Cmpd A)” value (Mino MCL cells; [11]) was 338.3E−12, the “Dm (Cmpd A)” value (Mino MCL cells; [12]) was 2.8E−9 and the “Dm (Cmpd A)” value (Mino MCL cells; [13]) was 23.1E−9. For the same molecule, the “Dm (Cmpd A)” value (Mino MCL cells; [14]) was 191.2E−9, the induction of apoptosis (Z138 cells [2]) was “induction of apoptosis” and the induction of apoptosis (Mino cells [3]) was “induction of apoptosis”. For the same molecule, the cell cycle distribution (Mino cells [4]) was “little effect on cell cycle distribution” and the cell viability (Mino cells [5]) was “decreased viability”.
For `C=CC(=O)N1CCC[C@@H](n2nc(-c3ccc(Oc4ccccc4)cc3)c3c(N)ncnc32)C1` [ibrutinib, reference compound], the “Dm (PCI-32765)” value (Z138 MCL cells; [6]) was 56.7E−6, the “Dm (PCI-32765)” value (Z138 MCL cells; [7]) was 146.1E−6 and the “Dm (PCI-32765)” value (Z138 MCL cells; [8]) was 376.3E−6. For the same molecule, the “Dm (PCI-32765)” value (Z138 MCL cells; [9]) was 969.0E−6, the “Dm (PCI-32765)” value (Z138 MCL cells; [10]) was 2.5E−3 and the “Dm (PCI-32765)” value (Z138 MCL cells; [11]) was 1.3E−6. For the same molecule, the “Dm (PCI-32765)” value (Z138 MCL cells; [12]) was 3.3E−6, the “Dm (PCI-32765)” value (Z138 MCL cells; [13]) was 8.6E−6 and the “Dm (PCI-32765)” value (Z138 MCL cells; [14]) was 22.0E−6. The “Dm (PCI-32765)” value (Mino MCL cells; [6]) was 5.1E−6, the “Dm (PCI-32765)” value (Mino MCL cells; [7]) was 10.2E−6 and the “Dm (PCI-32765)” value (Mino MCL cells; [8]) was 20.5E−6. The “Dm (PCI-32765)” value (Mino MCL cells; [10]) was 83.0E−6, the “Dm (PCI-32765)” value (Mino MCL cells; [11]) was 308.7E−9 and the “Dm (PCI-32765)” value (Mino MCL cells; [12]) was 621.3E−9. The “Dm (PCI-32765)” value (Mino MCL cells; [13]) was 1.3E−6, the “Dm (PCI-32765)” value (Mino MCL cells; [14]) was 2.5E−6 and the induction of apoptosis (Z138 cells [2]) was “induction of apoptosis”. For the same molecule, the induction of apoptosis (Mino cells [3]) was “induction of apoptosis” and the cell cycle distribution (Mino cells [4]) was “little effect on cell cycle distribution”.
